Assay results taken from patent publication US12157741B2, “Macrocyclic inhibitors of DYRK1A” (DANA-FARBER CANCER INSTITUTE, INC., priority 2018, dated 2024).
Like-named read-outs stand apart in the source and are kept apart here.

Columns and labels:
Type in all cases: binding
[1] = biological target: various enzymes (Homo sapiens, UniProt O00444); details: compound 1 uM
Protocol: (§1) Ambit profiling was conducted in accordance with the manufacturer's instructions.

[2] = biological target: various enzymes (Homo sapiens, UniProt O14965); details: compound 1 uM
Sequence of various enzymes (Homo sapiens, UniProt O14965) (O14965 whole entry): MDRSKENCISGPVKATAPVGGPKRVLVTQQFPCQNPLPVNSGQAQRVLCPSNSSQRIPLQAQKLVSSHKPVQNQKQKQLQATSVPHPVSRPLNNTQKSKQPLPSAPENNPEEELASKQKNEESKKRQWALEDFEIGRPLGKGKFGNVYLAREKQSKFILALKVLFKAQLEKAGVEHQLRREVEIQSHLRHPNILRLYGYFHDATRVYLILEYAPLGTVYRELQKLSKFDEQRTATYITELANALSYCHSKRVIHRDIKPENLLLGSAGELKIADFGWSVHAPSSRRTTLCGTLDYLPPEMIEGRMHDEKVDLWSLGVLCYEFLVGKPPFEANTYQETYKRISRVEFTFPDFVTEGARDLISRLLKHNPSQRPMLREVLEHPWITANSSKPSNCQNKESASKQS
Protocol: as §1

[3] = biological target: various enzymes (Homo sapiens, UniProt O75460); details: compound 1 uM
Sequence of various enzymes (Homo sapiens, UniProt O75460) (O75460 19-977): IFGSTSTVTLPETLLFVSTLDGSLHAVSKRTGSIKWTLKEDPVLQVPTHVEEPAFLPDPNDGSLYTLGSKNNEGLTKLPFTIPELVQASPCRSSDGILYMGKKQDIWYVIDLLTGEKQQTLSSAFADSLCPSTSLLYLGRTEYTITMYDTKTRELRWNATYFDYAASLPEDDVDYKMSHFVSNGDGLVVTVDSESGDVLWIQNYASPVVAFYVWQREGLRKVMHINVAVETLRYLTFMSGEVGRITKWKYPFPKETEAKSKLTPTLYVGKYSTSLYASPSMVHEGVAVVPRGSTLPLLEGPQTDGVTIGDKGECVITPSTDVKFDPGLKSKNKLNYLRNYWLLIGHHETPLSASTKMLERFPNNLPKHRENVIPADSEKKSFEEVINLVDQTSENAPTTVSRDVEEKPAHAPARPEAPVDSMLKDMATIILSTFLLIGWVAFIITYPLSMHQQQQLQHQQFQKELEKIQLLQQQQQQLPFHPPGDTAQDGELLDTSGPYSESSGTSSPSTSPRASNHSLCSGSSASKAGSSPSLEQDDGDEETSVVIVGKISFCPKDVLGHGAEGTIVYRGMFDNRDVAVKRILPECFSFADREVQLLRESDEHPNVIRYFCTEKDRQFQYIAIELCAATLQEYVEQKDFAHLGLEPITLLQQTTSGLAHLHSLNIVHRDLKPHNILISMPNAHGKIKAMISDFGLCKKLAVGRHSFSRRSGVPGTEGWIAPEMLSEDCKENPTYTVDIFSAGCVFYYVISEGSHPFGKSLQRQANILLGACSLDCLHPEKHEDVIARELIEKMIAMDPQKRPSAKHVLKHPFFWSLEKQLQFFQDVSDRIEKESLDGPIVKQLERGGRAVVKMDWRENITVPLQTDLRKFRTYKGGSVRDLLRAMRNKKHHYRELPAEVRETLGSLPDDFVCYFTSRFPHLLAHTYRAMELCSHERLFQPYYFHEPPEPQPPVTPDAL
Protocol: as §1

[4] = biological target: various enzymes (Homo sapiens, UniProt O94768); details: compound 1 uM
Sequence of various enzymes (Homo sapiens, UniProt O94768) (O94768 whole entry): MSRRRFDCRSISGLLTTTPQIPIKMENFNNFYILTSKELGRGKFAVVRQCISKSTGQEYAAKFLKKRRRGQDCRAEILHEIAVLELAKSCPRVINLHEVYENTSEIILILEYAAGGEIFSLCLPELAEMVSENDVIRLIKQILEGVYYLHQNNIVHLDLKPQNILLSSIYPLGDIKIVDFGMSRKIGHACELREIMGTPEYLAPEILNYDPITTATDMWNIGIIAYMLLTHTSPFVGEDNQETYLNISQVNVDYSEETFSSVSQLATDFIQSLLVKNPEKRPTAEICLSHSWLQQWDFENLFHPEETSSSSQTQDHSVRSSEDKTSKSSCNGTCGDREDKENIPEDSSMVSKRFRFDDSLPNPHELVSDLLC
Protocol: as §1

[5] = biological target: various enzymes (Homo sapiens, UniProt P00519, Q252H); details: compound 1 uM
Protocol: as §1

[6] = biological target: various enzymes (Homo sapiens, UniProt P00533, DEL746-750); details: compound 1 uM
Protocol: as §1

[7] = biological target: various enzymes (Homo sapiens, UniProt P07947); details: compound 1 uM
Protocol: as §1

[8] = biological target: various enzymes (Homo sapiens, UniProt P07948); details: compound 1 uM
Protocol: as §1

[9] = biological target: various enzymes (Homo sapiens, UniProt P10721, D816H)
Protocol: as §1

[10] = biological target: various enzymes (Homo sapiens, UniProt P14616); details: compound 1 uM
Protocol: as §1

[11] = biological target: various enzymes (Homo sapiens, UniProt P15735); details: compound 1 uM
Protocol: as §1

[12] = biological target: various enzymes (Homo sapiens, UniProt P22607, G697C)
Protocol: as §1

[13] = biological target: various enzymes (Homo sapiens, UniProt P31749); details: compound 1 uM
Protocol: as §1

[14] = biological target: various enzymes (Homo sapiens, UniProt P32298); details: compound 1 uM
Protocol: as §1

[15] = biological target: various enzymes (Homo sapiens, UniProt P35968); details: compound 1 uM
Protocol: as §1

[16] = biological target: T1, various enzymes (Homo sapiens, UniProt P36888, D835V, form not given)
T1 construct: other: FLT3(ITD, D835V); 1 uM; other: compound 1 uM
Protocol: as §1

[17] = biological target: various enzymes (Homo sapiens, UniProt P36888, N841I); details: compound 1 uM
Protocol: as §1

[18] = biological target: various enzymes (Homo sapiens, UniProt P41743); details: compound 1 uM
Protocol: as §1

[19] = biological target: T2, various enzymes (Homo sapiens, UniProt P45985); details: compound 1 uM
T2 sequence (P45985 1-399): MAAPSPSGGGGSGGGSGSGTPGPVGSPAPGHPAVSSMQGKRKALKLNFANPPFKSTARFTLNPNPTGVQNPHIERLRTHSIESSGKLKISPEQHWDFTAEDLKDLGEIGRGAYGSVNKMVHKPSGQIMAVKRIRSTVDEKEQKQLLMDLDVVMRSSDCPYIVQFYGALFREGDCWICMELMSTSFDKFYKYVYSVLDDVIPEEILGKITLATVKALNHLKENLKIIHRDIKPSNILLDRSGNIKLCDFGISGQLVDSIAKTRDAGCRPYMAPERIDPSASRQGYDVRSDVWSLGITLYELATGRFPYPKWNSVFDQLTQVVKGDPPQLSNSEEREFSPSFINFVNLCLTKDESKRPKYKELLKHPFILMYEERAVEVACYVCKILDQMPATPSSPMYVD
Protocol: as §1

[20] = biological target: various enzymes (Homo sapiens, UniProt P49841); details: compound 1 uM
Sequence of various enzymes (Homo sapiens, UniProt P49841) (P49841 whole entry): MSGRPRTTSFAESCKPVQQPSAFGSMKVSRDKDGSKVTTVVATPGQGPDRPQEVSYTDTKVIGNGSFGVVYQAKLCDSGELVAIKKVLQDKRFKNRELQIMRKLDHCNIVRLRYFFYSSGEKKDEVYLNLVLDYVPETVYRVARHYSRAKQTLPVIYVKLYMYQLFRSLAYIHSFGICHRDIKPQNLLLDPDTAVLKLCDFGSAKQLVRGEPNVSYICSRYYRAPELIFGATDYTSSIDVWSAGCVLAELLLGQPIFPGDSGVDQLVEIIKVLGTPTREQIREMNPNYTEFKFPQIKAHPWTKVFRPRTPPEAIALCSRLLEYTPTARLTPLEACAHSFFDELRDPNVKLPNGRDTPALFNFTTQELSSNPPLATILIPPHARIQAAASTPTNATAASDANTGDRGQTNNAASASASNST
Protocol: as §1

[21] = biological target: various enzymes (Homo sapiens, UniProt P51957); details: compound 1 uM
Protocol: as §1

[22] = biological target: various enzymes (Homo sapiens, UniProt P54756); details: compound 1 uM
Protocol: as §1

[23] = biological target: various enzymes (Homo sapiens, UniProt Q02750); details: compound 1 uM
Sequence of various enzymes (Homo sapiens, UniProt Q02750) (Q02750 whole entry): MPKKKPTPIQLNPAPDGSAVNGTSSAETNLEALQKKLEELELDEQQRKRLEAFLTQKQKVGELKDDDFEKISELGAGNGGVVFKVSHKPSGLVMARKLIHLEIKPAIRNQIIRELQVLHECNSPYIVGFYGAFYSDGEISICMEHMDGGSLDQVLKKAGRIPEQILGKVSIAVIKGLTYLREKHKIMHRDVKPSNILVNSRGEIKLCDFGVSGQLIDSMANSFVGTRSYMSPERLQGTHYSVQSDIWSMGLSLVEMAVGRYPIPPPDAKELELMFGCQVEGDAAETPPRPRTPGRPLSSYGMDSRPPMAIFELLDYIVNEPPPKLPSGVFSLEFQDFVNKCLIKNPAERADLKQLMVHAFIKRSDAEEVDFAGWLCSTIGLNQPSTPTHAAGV
Protocol: as §1

[24] = biological target: various enzymes (Homo sapiens, UniProt Q05397); details: compound 1 uM
Sequence of various enzymes (Homo sapiens, UniProt Q05397) (Q05397 whole entry): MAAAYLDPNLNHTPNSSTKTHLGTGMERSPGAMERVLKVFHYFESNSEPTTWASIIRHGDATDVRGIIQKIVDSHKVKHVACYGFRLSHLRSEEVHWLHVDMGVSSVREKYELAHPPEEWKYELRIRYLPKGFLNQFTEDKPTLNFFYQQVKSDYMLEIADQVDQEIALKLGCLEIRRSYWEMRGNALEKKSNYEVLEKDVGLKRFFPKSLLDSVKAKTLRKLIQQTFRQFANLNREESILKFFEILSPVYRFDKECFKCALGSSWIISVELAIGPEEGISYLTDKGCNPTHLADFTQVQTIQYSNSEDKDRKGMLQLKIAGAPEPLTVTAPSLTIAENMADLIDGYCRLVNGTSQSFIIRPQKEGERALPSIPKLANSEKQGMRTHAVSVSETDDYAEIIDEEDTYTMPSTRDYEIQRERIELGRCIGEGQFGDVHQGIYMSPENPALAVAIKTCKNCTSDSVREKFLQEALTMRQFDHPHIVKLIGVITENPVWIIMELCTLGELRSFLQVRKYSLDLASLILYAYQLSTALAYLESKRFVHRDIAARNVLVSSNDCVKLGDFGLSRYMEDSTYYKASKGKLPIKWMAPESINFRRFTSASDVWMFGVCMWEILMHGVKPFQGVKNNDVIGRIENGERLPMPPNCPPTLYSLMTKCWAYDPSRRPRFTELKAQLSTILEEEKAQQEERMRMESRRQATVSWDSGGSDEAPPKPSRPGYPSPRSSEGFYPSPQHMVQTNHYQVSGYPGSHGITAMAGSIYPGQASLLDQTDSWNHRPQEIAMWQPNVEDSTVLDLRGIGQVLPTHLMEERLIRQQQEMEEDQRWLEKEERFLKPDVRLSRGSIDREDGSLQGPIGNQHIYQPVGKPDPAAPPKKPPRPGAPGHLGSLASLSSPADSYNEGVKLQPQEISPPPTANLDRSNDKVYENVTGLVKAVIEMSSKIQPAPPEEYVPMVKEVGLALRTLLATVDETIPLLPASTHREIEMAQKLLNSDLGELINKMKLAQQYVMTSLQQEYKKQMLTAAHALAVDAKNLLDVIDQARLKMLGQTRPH
Protocol: as §1

[25] = biological target: various enzymes (Homo sapiens, UniProt Q09013); details: compound 1 uM
Protocol: as §1

[26] = biological target: various enzymes (Homo sapiens, UniProt Q13153); details: compound 1 uM
Protocol: as §1

[27] = biological target: various enzymes (Homo sapiens, UniProt Q13470); details: compound 1 uM
Protocol: as §1

[28] = biological target: various enzymes (Homo sapiens, UniProt Q13523); details: compound 1 uM
Protocol: as §1

[29] = biological target: various enzymes (Homo sapiens, UniProt Q14004); details: compound 1 uM
Protocol: as §1

[30] = biological target: various enzymes (Homo sapiens, UniProt Q15375); details: compound 1 uM
Protocol: as §1

[31] = biological target: various enzymes (Homo sapiens, UniProt Q8N752); details: compound 1 uM
Protocol: as §1

[32] = biological target: various enzymes (Homo sapiens, UniProt Q8NEB9); details: compound 1 uM
Protocol: as §1

[33] = biological target: various enzymes (Homo sapiens, UniProt Q8TDC3); details: compound 1 uM
Protocol: as §1

[34] = biological target: various enzymes (Homo sapiens, UniProt Q96GD4); details: compound 1 uM
Protocol: as §1

[35] = biological target: various enzymes (Homo sapiens, UniProt Q9BUB5); details: compound 1 uM
Sequence of various enzymes (Homo sapiens, UniProt Q9BUB5) (Q9BUB5 whole entry): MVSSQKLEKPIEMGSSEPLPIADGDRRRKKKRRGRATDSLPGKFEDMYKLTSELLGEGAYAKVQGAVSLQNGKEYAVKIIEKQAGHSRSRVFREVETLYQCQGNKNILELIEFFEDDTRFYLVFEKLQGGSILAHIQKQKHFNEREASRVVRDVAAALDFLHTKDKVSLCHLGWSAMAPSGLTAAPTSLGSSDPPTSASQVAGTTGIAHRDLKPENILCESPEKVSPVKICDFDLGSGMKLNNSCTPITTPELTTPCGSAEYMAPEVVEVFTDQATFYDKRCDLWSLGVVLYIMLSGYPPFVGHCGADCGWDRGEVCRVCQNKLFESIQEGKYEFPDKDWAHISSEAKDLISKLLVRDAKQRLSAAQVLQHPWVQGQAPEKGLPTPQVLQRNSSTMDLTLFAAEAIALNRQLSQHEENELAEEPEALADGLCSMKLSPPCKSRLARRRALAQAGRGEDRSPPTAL
Protocol: as §1

[36] = biological target: various enzymes (Homo sapiens, UniProt Q9HAZ1); details: compound 1 uM
Protocol: as §1

[37] = biological target: various enzymes (Homo sapiens, UniProt Q9HBY8); details: compound 1 uM
Protocol: as §1

[38] = biological target: various enzymes (Homo sapiens, UniProt Q9Y463); details: compound 1 uM
Sequence of various enzymes (Homo sapiens, UniProt Q9Y463) (Q9Y463 whole entry): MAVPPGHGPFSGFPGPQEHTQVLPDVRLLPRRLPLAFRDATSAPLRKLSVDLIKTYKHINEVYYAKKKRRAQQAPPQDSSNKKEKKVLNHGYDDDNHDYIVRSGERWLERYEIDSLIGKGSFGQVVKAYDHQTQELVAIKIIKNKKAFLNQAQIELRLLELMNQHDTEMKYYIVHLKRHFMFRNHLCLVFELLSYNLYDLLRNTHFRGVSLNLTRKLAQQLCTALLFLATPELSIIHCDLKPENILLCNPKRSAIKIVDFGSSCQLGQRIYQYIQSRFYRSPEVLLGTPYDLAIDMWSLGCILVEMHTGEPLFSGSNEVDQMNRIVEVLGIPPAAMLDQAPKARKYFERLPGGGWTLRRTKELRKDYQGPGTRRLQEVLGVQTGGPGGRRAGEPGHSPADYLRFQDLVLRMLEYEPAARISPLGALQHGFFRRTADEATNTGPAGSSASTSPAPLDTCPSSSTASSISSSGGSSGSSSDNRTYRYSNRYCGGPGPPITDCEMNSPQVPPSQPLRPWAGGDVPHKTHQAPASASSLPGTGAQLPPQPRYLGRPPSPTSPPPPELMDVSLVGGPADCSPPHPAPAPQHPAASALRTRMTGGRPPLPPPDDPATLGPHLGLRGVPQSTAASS
Protocol: as §1

SMILES | Ambit profiling: PLK4 [1] | Ambit profiling: AURKA [2] | Ambit profiling: ERN1 [3] | Ambit profiling: DRAK2 [4] | Ambit profiling: ABL1(Q252H)-nonphosphorylated [5] | Ambit profiling: ABL1(Q252H)-phosphorylated [5] | Ambit profiling: EGFR(E746-A750del) [6] | Ambit profiling: YES [7] | Ambit profiling: LYN [8] | Ambit profiling: INSRR [10] | Ambit profiling: PHKG2 [11] | Ambit profiling: AKT1 [13] | Ambit profiling: GRK4 [14] | Ambit profiling: VEGFR2 [15] | Ambit profiling: PRKCI [18] | Ambit profiling: MEK4 [19] | Ambit profiling: GSK3B [20] | Ambit profiling: NEK4 [21] | Ambit profiling: EPHA5 [22] | Ambit profiling: MEK1 [23] | further results
CC(C)N1Cc2nn(C)cc2-c2cnc3[nH]cc(c3c2)-c2cn(nc2C(F)(F)F)CCCC1=O [Compound 45, (Z)-5-isopropyl-31-methyl-13-(trifluoromethyl)-11H,21H,31H-5-aza-2(3,5)-pyrrolo[2,3-b]pyridina-1(4,1),3(4,3)-dipyrazolacyclononaphan-6-one] | 29 | 0.6 | 90 | 100 | 3.2 | 20 | 6.4 | 56 | 22 | 51 | 44 | 100 | 14 | 2 | 9.1 | 0.5 | 24 | 93 | 92 | 17 | Ambit profiling: KIT(D816H) ([9]; compound 1 uM): 35; Ambit profiling: FGFR3(G697C) ([12]; compound 1 uM): 4.5; Ambit profiling: FLT3(ITD, D835V) ([16]; compound 1 uM): 0; Ambit profiling: FLT3(N841I) [17]: 0; Ambit profiling: FAK [24]: 20; Ambit profiling: DMPK [25]: 20; Ambit profiling: PAK1 [26]: 69; Ambit profiling: TNK1 [27]: 12; Ambit profiling: PRP4 [28]: 36; Ambit profiling: CDC2L5 [29]: 99; Ambit profiling: EPHA7 [30]: 59; Ambit profiling: CSNK1A1L [31]: 100; Ambit profiling: VPS34 [32]: 100; Ambit profiling: BRSK1 [33]: 100; Ambit profiling: AURKB [34]: 5.7; Ambit profiling: MKNK1 [35]: 100; Ambit profiling: CLK4 [36]: 19; Ambit profiling: SGK2 [37]: 23; Ambit profiling: DYRK18 [38]: 0.55
COc1c2c(nn1C)CN(C(C)C)C(=O)CCCn1cc(c(C(F)(F)F)n1)-c1c[nH]c3ncc-2cc13 [Compound 50, (Z)-5-isopropyl-35-methoxy-31-methyl-13-(trifluoromethyl)-11H,21H,31H-5-aza-2(3,5)-pyrrolo[2,3-b]pyridina-1(4,1),3(4,3)-dipyrazolacyclononaphan-6-one] | 10 | 15 | 71 | 98 | 2.4 | 1.6 | 5.9 | 21 | 15 | 56 | 53 | 100 | 38 | 0.8 | 42 | 16 | 90 | 100 | 67 | 12 | Ambit profiling: KIT(D816H) [9]: 4.5; Ambit profiling: FGFR3(G697C) [12]: 6.4; Ambit profiling: FLT3(ITD, D835V) [16]: 0.55; Ambit profiling: FLT3(N841) [17]: 0; Ambit profiling: FAK [24]: 5.3; Ambit profiling: DMPK [25]: 100; Ambit profiling: PAK1 [26]: 76; Ambit profiling: TNK1 [27]: 28; Ambit profiling: PRP4 [28]: 87; Ambit profiling: CDC2L5 [29]: 89; Ambit profiling: EPHA7 [30]: 50; Ambit profiling: CSNK1A1L [31]: 67; Ambit profiling: VPS34 [32]: 83; Ambit profiling: BRSK1 [33]: 89; Ambit profiling: AURKB [34]: 18; Ambit profiling: MKNK1 [35]: 83; Ambit profiling: CLK4 [36]: 17; Ambit profiling: SGK2 [37]: 59; Ambit profiling: DYRK1B [38]: 5.2
